{"source": "ChEMBL document CHEMBL6078657", "about": "“Thiazolidinedione-based structure modification of ergosterol peroxide provides thiazolidinedione-conjugated derivatives as potent agents against breast cancer cells through a PI3K/AKT/mTOR pathway” (Bioorg Med Chem, 2025)", "key": {"MCF7 [1]": {"tested_on": "MCF7", "assay": "Induction of apoptosis in human MCF7 cells assessed as decrease in mitochondrial membrane potential by measuring increase in JC-1 monomer (green fluorescence) at 3 uM incubated for 48 hrs by JC-1 staining based flow cytometry analysis (reference value: 2.96%)", "assay_type": "functional", "parameters": "scale not given: the % may be the effect or the level left"}, "[2]": {"assay": "Antiproliferative activity against human MCF-10A cells assessed as cell viability measured after 48 hrs incubation by MTT assay", "assay_type": "toxicity, cell-based"}, "[3]": {"assay": "Selectivity index, ratio of IC50 for human MCF-10A cells to IC50 for human MCF7 cells", "assay_type": "toxicity", "details": "MCF-10A cells and MCF7 cells, read-out: Selectivity Index"}, "MCF7 [4]": {"tested_on": "MCF7", "assay": "Growth inhibition of human MCF7 cells assessed as ruptured membrane and shrunken nucleus at 1 to 6 uM incubated up to 48 hrs by acridine orange/ethidium bromide (AO/EB) staining based assay", "assay_type": "functional, cell-based", "details": "dose 1-6 µM"}, "MCF7 [5]": {"tested_on": "MCF7", "assay": "Induction of apoptosis in human MCF7 cells assessed as early apoptotic cells at 3 uM measured after 48 hrs incubation by Annexin V-FITC/PI double staining assay (reference value: 5.73%)", "assay_type": "functional"}, "4T1 [6]": {"tested_on": "4T1", "assay": "In vivo antitumor activity against mouse 4T1 cells transfected in BALB/c mouse assessed as tumor growth inhibition at 15 mg/kg, ip daily for 14 consecutive days relative to control", "assay_type": "functional", "details": "4T1, 336 h, time 14 day, read-out: TGI"}, "[7]": {"assay": "Toxicity in healthy BALB/c mouse assessed as pathological changes in heart at 40 mg/kg, ip daily for 14 consecutive days by HE staining based assay", "assay_type": "organism-based", "details": "in vivo, 336 h, time 14 day"}, "MCF7 [8]": {"tested_on": "MCF7", "assay": "Induction of apoptosis in human MCF7 cells assessed as early apoptotic cells at 6 uM measured after 48 hrs incubation by Annexin V-FITC/PI double staining assay (reference value: 5.73%)", "assay_type": "functional"}, "MCF7 [9]": {"tested_on": "MCF7", "assay": "Induction of apoptosis in human MCF7 cells assessed as increase in ROS production by measuring bright green fluorescence measured after 48 hrs incubation by DCFH-DA staining based flow cytometry assay", "assay_type": "functional, cell-based", "details": "dose 1-6 µM"}, "MCF7 [10]": {"tested_on": "MCF7", "assay": "Induction of apoptosis in human MCF7 cells assessed as viable cells at 1 uM measured after 48 hrs incubation by Annexin V-FITC/PI double staining assay (reference value: 92.8%)", "assay_type": "functional", "details": "read-out: Activity"}, "MCF7 [11]": {"tested_on": "MCF7", "assay": "Induction of apoptosis in human MCF7 cells assessed as late apoptotic cells at 6 uM measured after 48 hrs incubation by Annexin V-FITC/PI double staining assay (reference value: 0.68%)", "assay_type": "functional"}, "[12]": {"assay": "Toxicity in healthy BALB/c mouse assessed as pathological changes in liver at 20 mg/kg, ip daily for 14 consecutive days by HE staining based assay", "assay_type": "organism-based", "details": "in vivo, 336 h, time 14 day"}, "MCF7 [13]": {"tested_on": "MCF7", "assay": "Induction of apoptosis in human MCF7 cells assessed as decrease in mitochondrial membrane potential by measuring increase in JC-1 monomer (green fluorescence) at 6 uM incubated for 48 hrs by JC-1 staining based flow cytometry analysis (reference value: 2.96%)", "assay_type": "functional", "parameters": "scale not given: the % may be the effect or the level left"}, "[14]": {"assay": "Toxicity in healthy BALB/c mouse assessed as pathological changes in heart at 20 mg/kg, ip daily for 14 consecutive days by HE staining based assay", "assay_type": "organism-based", "details": "in vivo, 336 h, time 14 day"}, "MCF7 [15]": {"tested_on": "MCF7", "assay": "Induction of apoptosis in human MCF7 cells assessed as viable cells at 6 uM measured after 48 hrs incubation by Annexin V-FITC/PI double staining assay (reference value: 92.8%)", "assay_type": "functional", "details": "read-out: Activity"}, "[16]": {"assay": "Toxicity in healthy BALB/c mouse assessed as pathological changes in kidney at 40 mg/kg, ip daily for 14 consecutive days by HE staining based assay", "assay_type": "organism-based", "details": "in vivo"}, "[17]": {"assay": "Toxicity in healthy BALB/c mouse assessed as pathological changes in spleen at 20 mg/kg, ip daily for 14 consecutive days by HE staining based assay", "assay_type": "organism-based", "details": "in vivo, 336 h, time 14 day"}, "MCF7 [18]": {"tested_on": "MCF7", "assay": "Induction of cell cycle arrest in human MCF7 cells assessed as accumulation of cells at G2/M phase at 6 uM measured after 48 hrs by PI staining based flow cytometry analysis (reference value: 16.91%)", "assay_type": "functional"}, "A549": {"tested_on": "A549", "assay": "Antiproliferative activity against human A549 cells assessed as cell viability measured after 48 hrs incubation by MTT assay", "assay_type": "functional, cell-based", "details": "A549, 48 h"}, "MCF7 [19]": {"tested_on": "MCF7", "assay": "Induction of cell cycle arrest in human MCF7 cells assessed as accumulation of cells at G0/G1 phase at 6 uM measured after 48 hrs by PI staining based flow cytometry analysis (reference value: 58.42%)", "assay_type": "functional"}, "MCF7 [20]": {"tested_on": "MCF7", "assay": "Induction of cell cycle arrest in human MCF7 cells assessed as accumulation of cells at G0/G1 phase at 1 uM measured after 48 hrs by PI staining based flow cytometry analysis (reference value: 58.42%)", "assay_type": "functional"}, "MCF7 [21]": {"tested_on": "MCF7", "assay": "Inhibition of phosphorylation of PI3K in human MCF7 cells measured after 48 hrs by Western blot analysis", "assay_type": "cell-based", "details": "dose 1-6 µM"}, "MCF7 [22]": {"tested_on": "MCF7", "assay": "Induction of apoptosis in human MCF7 cells assessed as late apoptotic cells at 3 uM measured after 48 hrs incubation by Annexin V-FITC/PI double staining assay (reference value: 0.68%)", "assay_type": "functional"}, "[23]": {"assay": "Toxicity in healthy BALB/c mouse assessed as pathological changes in liver at 40 mg/kg, ip daily for 14 consecutive days by HE staining based assay", "assay_type": "organism-based", "details": "in vivo, 336 h, time 14 day"}, "MCF7 [24]": {"tested_on": "MCF7", "assay": "Induction of cell cycle arrest in human MCF7 cells assessed as accumulation of cells at S phase at 1 uM measured after 48 hrs by PI staining based flow cytometry analysis (reference value: 24.67%)", "assay_type": "functional"}, "MCF7 [25]": {"tested_on": "MCF7", "assay": "Induction of cell cycle arrest in human MCF7 cells assessed as accumulation of cells at S phase at 6 uM measured after 48 hrs by PI staining based flow cytometry analysis (reference value: 24.67%)", "assay_type": "functional"}, "[26]": {"assay": "Toxicity in healthy BALB/c mouse assessed as pathological changes in kidneys at 20 mg/kg, ip daily for 14 consecutive days by HE staining based assay", "assay_type": "organism-based", "details": "in vivo, 336 h, time 14 day"}, "[27]": {"target": "Serine/threonine-protein kinase mTOR (Homo sapiens) (UniProt P42345)", "assay": "Inhibition of phosphorylation of mTOR in human MCF7 cells measured after 48 hrs by Western blot analysis", "assay_type": "cell-based", "details": "dose 1-6 µM"}, "MCF7 [28]": {"tested_on": "MCF7", "assay": "Inhibition of phosphorylation of Akt in human MCF7 cells measured after 48 hrs by Western blot analysis", "assay_type": "cell-based", "details": "dose 1-6 µM"}, "[29]": {"assay": "Toxicity in healthy BALB/c mouse assessed as pathological changes in lungs at 20 mg/kg, ip daily for 14 consecutive days by HE staining based assay", "assay_type": "organism-based", "details": "in vivo, 336 h, time 14 day"}, "MCF7 [30]": {"tested_on": "MCF7", "assay": "Induction of cell cycle arrest in human MCF7 cells assessed as accumulation of cells at S phase at 3 uM measured after 48 hrs by PI staining based flow cytometry analysis (reference value: 24.67%)", "assay_type": "functional"}, "4T1 [31]": {"tested_on": "4T1", "assay": "In vivo antitumor activity against mouse 4T1 cells transfected in BALB/c mouse assessed as tumor growth inhibition at 30 mg/kg, ip daily for 14 consecutive days relative to control", "assay_type": "functional", "details": "4T1, 336 h, time 14 day, read-out: TGI"}, "MCF7 [32]": {"tested_on": "MCF7", "assay": "Induction of apoptosis in human MCF7 cells assessed as late apoptotic cells at 1 uM measured after 48 hrs incubation by Annexin V-FITC/PI double staining assay (reference value: 0.68%)", "assay_type": "functional"}, "MCF7 [33]": {"tested_on": "MCF7", "assay": "Induction of apoptosis in human MCF7 cells assessed as decrease in mitochondrial membrane potential by measuring increase in JC-1 monomer (green fluorescence) incubated for 48 hrs by JC-1 staining based flow cytometry analysis", "assay_type": "functional, cell-based", "details": "dose 1-6 µM"}, "MCF7 [34]": {"tested_on": "MCF7", "assay": "Induction of apoptosis in human MCF7 cells assessed as necrotic cells at 3 uM measured after 48 hrs incubation by Annexin V-FITC/PI double staining assay (reference value: 0.77%)", "assay_type": "functional"}}, "note": "The source made the active and inactive calls. No cut-off for these calls is given here.", "data": [{"smiles": "CC(C)[C@@H](C)/C=C/[C@@H](C)[C@H]1CC[C@@H]2[C@]1(C)CC[C@H]1[C@]23C=C[C@]2(C[C@@H](OC(=O)NCCNC(=O)CN4C(=O)S/C(=C\\c5cccc6ccccc56)C4=O)CC[C@]12C)OO3", "values": [{"measurement": "Activity", "setting": "MCF7 [1]", "value": 26.2, "unit": "%"}, {"measurement": "IC50 at 48 h", "setting": "[2]", "value": 32.3, "unit": "µM"}, {"measurement": "selectivity ratio", "setting": "[3]", "value": 10.6}, {"measurement": "growth inhibition (GI)", "setting": "MCF7 [4]", "value": "Active"}, {"measurement": "Activity", "setting": "MCF7 [5]", "value": 22.8, "unit": "%"}, {"measurement": "inhibition in vivo at 15 mg/kg", "setting": "4T1 [6]", "value": 33.5, "unit": "%"}, {"measurement": "Activity", "setting": "[7]", "value": "Non-toxic"}, {"measurement": "Activity", "setting": "MCF7 [8]", "value": 44.5, "unit": "%"}, {"measurement": "Activity", "setting": "MCF7 [9]", "value": "Active"}, {"measurement": "viability at 1 µM", "setting": "MCF7 [10]", "value": 84.4, "unit": "%"}, {"measurement": "Activity", "setting": "MCF7 [11]", "value": 1.75, "unit": "%"}, {"measurement": "Activity", "setting": "[12]", "value": "Non-toxic"}, {"measurement": "Activity", "setting": "MCF7 [13]", "value": 49.5, "unit": "%"}, {"measurement": "Activity", "setting": "[14]", "value": "Non-toxic"}, {"measurement": "viability at 6 µM", "setting": "MCF7 [15]", "value": 53, "unit": "%"}, {"measurement": "Activity", "setting": "[16]", "value": "Non-toxic"}, {"measurement": "Activity", "setting": "[17]", "value": "Non-toxic"}, {"measurement": "Activity", "setting": "MCF7 [18]", "value": 7.27, "unit": "%"}, {"measurement": "IC50", "setting": "A549", "value": 4.76, "unit": "µM"}, {"measurement": "Activity", "setting": "MCF7 [19]", "value": 89.86, "unit": "%"}, {"measurement": "Activity", "setting": "MCF7 [20]", "value": 66.09, "unit": "%"}, {"measurement": "inhibition", "setting": "MCF7 [21]", "value": "Dose-dependent-effect"}, {"measurement": "Activity", "setting": "MCF7 [22]", "value": 0.77, "unit": "%"}, {"measurement": "Activity", "setting": "[23]", "value": "Non-toxic"}, {"measurement": "Activity", "setting": "MCF7 [24]", "value": 14.93, "unit": "%"}, {"measurement": "Activity", "setting": "MCF7 [25]", "value": 2.87, "unit": "%"}, {"measurement": "Activity", "setting": "[26]", "value": "Non-toxic"}, {"measurement": "inhibition", "setting": "[27]", "value": "Dose-dependent-effect"}, {"measurement": "inhibition", "setting": "MCF7 [28]", "value": "Dose-dependent-effect"}, {"measurement": "Activity", "setting": "[29]", "value": "Non-toxic"}, {"measurement": "Activity", "setting": "MCF7 [30]", "value": 8.41, "unit": "%"}, {"measurement": "inhibition in vivo at 30 mg/kg", "setting": "4T1 [31]", "value": 86.2, "unit": "%"}, {"measurement": "Activity", "setting": "MCF7 [32]", "value": 0.9, "unit": "%"}, {"measurement": "Activity", "setting": "MCF7 [33]", "value": "Dose-dependent-effect"}, {"measurement": "Activity", "setting": "MCF7 [34]", "value": 0.77, "unit": "%"}]}]}
